Assay results published in patent publication US3954730A, “6-(Substituted-cycloalkylcarboxamide) penicillanic acids” (Bayer Aktiengesellschaft, priority 1973, dated 1976).
Counter-ions that a name gives are not always drawn.

Assays:
[1] = test system: Lactobacillus sp.; test: Turbidity test in Muller-Hinton nutrient broth at 100 μg/ml; format: cell-based
[2] = test system: Pasteurella pseudotuberculosis; format: cell-based; conditions: 100 μg/ml, 24 hours
[3] = test system: Staphylococcus aureus 133; test: Turbidity test in Muller-Hinton nutrient broth at 100 μg/ml; format: cell-based
[4] = test system: E. coli 14; test: Minimum inhibitory concentration (MIC) in vitro, liquid medium test tube series dilution test; format: cell-based; conditions: 24 hours incubation at 37° C
Experimental: (§1) They were determined in a liquid medium in a test tube series dilution test, the readings being taken after 24 hours incubation at 37° C.
(§2) The numbers allotted to the compounds of the invention in Table 1 correspond to the numbers of the Preparative Examples in which the preparation of the particular compounds are described.
(§3) The MIC is indicated by the non-turbid test tube in the dilution series. A complete medium of the following composition was used as the growth medium: […]

[5] = test system: Neisseria catarrhalis sp.; test: Turbidity test in Muller-Hinton nutrient broth at 100 μg/ml; format: cell-based
[6] = test system: Clostridium tetani; format: cell-based; conditions: 100 μg/ml, 24 hours
[7] = test system: Ent. ATCC 9790; test: Minimum inhibitory concentration (MIC) in vitro, liquid medium test tube series dilution test; format: cell-based, Enterococcus; conditions: 24 hours incubation at 37° C
Experimental: as §1, §2, §3

[8] = test system: Bordetella bronciseptica; test: Turbidity test in Muller-Hinton nutrient broth at 100 μg/ml; format: cell-based
[9] = test system: Corynebacterium diphteriae gravis; test: as above; format: cell-based
[10] = test system: Shigella sp.; test: as above; format: cell-based
[11] = test system: Corynebacterium pyrogenes M; test: as above; format: cell-based
[12] = test system: Salmonella sp.; test: as above; format: cell-based
[13] = test system: Enterococcus sp.; test: as above; format: cell-based
[14] = test system: E. coli BE; test: as above; format: cell-based; conditions: 24 hours
[15] = test system: Brucella sp.; format: cell-based; conditions: 100 μg/ml, 24 hours
[16] = test system: Clostridium botulinium; format: cell-based
[17] = test system: Streptococcus pyogenes W.; test: Turbidity test in Muller-Hinton nutrient broth at 100 μg/ml; format: cell-based
[18] = test system: Diplococcus pneumoniae sp.; test: as above; format: cell-based
[19] = test system: Haemophilus influenzae; test: as above; format: cell-based
[20] = test system: Proteus indolnegativ, sp.; test: as above; format: cell-based
[21] = test system: Staph. aureus 1756; test: Minimum inhibitory concentration (MIC) in vitro, liquid medium test tube series dilution test; format: cell-based; conditions: 24 hours incubation at 37° C
Experimental: (§4) Table 1, which follows, specifies the minimum inhibitory concentrations (MIC) in vitro, in U/ml of nutrient medium of typical compounds of the invention. They were determined in a liquid medium in a test tube series dilution test, the readings being taken after 24 hours incubation at 37° C.
as §2, §3

[22] = test system: Staph. aureus 133; test: as above; format: cell-based; conditions: 24 hours incubation at 37° C
Experimental: as §4, §2, §3

[23] = test system: E. coli C 165; test: as above; format: cell-based; conditions: 24 hours incubation at 37° C
Experimental: as §4, §2, §3

Compound | MIC [4] | MIC [7] | MIC [21] | MIC [22] | MIC [23] | further results
CC1(C)S[C@@H]2[C@H](NC(=O)C3(C)CC3(Cl)Cl)C(=O)N2[C@H]1C(=O)O (some centres unmarked) [Example 1, sodium salt of 6-(2,2-dichloro-1-methyl-cyclopropylcarboxamido)-penicillanic acid] | 128 U/ml | 16-32 U/ml | 32-64 U/ml | 0.2 U/ml | – | freedom from turbidity (anti-bacterial action) [1]: free from turbidity; freedom from turbidity (anti-bacterial action) [2]: free from turbidity; freedom from turbidity (anti-bacterial action) [3]: free from turbidity; freedom from turbidity (anti-bacterial action) [5]: free from turbidity; freedom from turbidity (anti-bacterial action) [6]: free from turbidity; freedom from turbidity (anti-bacterial action) [8]: free from turbidity; freedom from turbidity (anti-bacterial action) [9]: free from turbidity; freedom from turbidity (anti-bacterial action) [10]: free from turbidity; freedom from turbidity (anti-bacterial action) [11]: free from turbidity; freedom from turbidity (anti-bacterial action) [12]: free from turbidity; freedom from turbidity (anti-bacterial action) [13]: free from turbidity; freedom from turbidity (anti-bacterial action) [14]: free from turbidity; freedom from turbidity (anti-bacterial action) [15]: free from turbidity; freedom from turbidity (anti-bacterial action) [16]: free from turbidity; freedom from turbidity (anti-bacterial action) [17]: free from turbidity; freedom from turbidity (anti-bacterial action) [18]: free from turbidity; freedom from turbidity (anti-bacterial action) [19]: free from turbidity; freedom from turbidity (anti-bacterial action) [20]: free from turbidity
CC1(C)S[C@@H]2[C@H](NC(=O)C3(C)CC3(Br)Br)C(=O)N2[C@H]1C(=O)O (some centres unmarked) [Example 2, sodium salt of 6-(2,2-dibromo-1-methyl-cyclopropyl-carboxamido)-penicillanic acid] | 128 U/ml | 32 U/ml | 128 U/ml | 0.2 U/ml | – | –
CC1(C)S[C@@H]2[C@H](NC(=O)C3CC3C#N)C(=O)N2[C@H]1C(=O)O (some centres unmarked) [Example 3, sodium salt of 6-(2-cyano-1-cyclopropylcarboxamido)-penicillanic acid] | 128-256 U/ml | 64-128 U/ml | – | 2-4 U/ml | – | –
CC1(C)S[C@@H]2[C@H](NC(=O)C3CC(Cl)C3)C(=O)N2[C@H]1C(=O)O (some centres unmarked) [Example 4, sodium salt of 6-(3-chloro-cyclobutylcarboxamido)-penicillanic acid] | 32-64 U/ml | 8-16 U/ml | 32-64 U/ml | 2-4 U/ml | 128-256 U/ml | –
CC1(C)S[C@@H]2[C@H](NC(=O)C3(C#N)CCC3)C(=O)N2[C@H]1C(=O)O [Example 5, sodium salt of 6(1-cyano-1-cyclobutylcarboxamido)-penicillanic acid] | 32-64 U/ml | 8 U/ml | 128 U/ml | 0.2 U/ml | 128 U/ml | –
CC1(C)S[C@@H]2[C@H](NC(=O)C3CCC(Cl)C3)C(=O)N2[C@H]1C(=O)O (some centres unmarked) [Example 6, sodium salt of 6-(4-chloro-1-cyclopentylcarboxamide)-penicillanic acid] | 32 U/ml | 8-16 U/ml | 32-64 U/ml | 0.1 U/ml | 128 U/ml | –
CC1(C)S[C@@H]2[C@H](NC(=O)C3CC(Cl)C(Cl)C3)C(=O)N2[C@H]1C(=O)O (some centres unmarked) [Example 7, sodium salt of 6-(3,4-dichlorocyclopentylcarboxamido)-penicillanic acid] | 32 U/ml | 8-16 U/ml | 32-64 U/ml | 0.1 U/ml | 128 U/ml | –
CC1(C)S[C@@H]2[C@H](NC(=O)C3(Cl)CCCC3=O)C(=O)N2[C@H]1C(=O)O (some centres unmarked) [Example 8, Sodium salt of 6-(cyclopentanone-2-chloro-2-carboxamido)-penicillanic acid] | 128 U/ml | 128 U/ml | – | 2-4 U/ml | – | –
CC1(C)S[C@@H]2[C@H](NC(=O)C3CCC(Cl)CC3)C(=O)N2[C@H]1C(=O)O (some centres unmarked) [Example 9, sodium salt of 6-(4-chloro-1-cyclohexylcarboxamido)-penciillanic acid] | 64 U/ml | 8-16 U/ml | 64 U/ml | 0.1 U/ml | – | –
